Assays:
[1] = biological target: T1, Cholesteryl ester transfer protein (Homo sapiens, UniProt P11597); assay: Compound was evaluated for inhibitory activity against cholesteryl ester transfer protein, reported from fungus; set-up: species or system Fungi
T1 sequence (P11597 whole entry): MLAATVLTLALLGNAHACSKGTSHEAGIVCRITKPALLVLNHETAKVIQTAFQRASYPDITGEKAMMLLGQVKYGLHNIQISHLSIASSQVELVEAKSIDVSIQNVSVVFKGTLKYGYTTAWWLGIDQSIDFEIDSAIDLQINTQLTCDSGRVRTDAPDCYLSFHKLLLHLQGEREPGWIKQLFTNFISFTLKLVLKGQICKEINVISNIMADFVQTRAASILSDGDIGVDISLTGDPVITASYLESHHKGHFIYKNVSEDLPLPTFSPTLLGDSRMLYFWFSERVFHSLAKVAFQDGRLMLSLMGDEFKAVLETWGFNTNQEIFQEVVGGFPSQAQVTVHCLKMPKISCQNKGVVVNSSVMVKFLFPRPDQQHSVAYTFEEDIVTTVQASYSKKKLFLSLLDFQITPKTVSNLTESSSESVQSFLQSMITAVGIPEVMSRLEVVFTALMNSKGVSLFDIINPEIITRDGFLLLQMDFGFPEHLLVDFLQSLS

[2] = biological target: T1, Cholesteryl ester transfer protein; assay: Compound was evaluated for inhibitory activity against cholesteryl ester transfer protein, reported from sponge
[3] = biological target: T1, Cholesteryl ester transfer protein; assay: Compound was evaluated for inhibitory activity against cholesteryl ester transfer protein
[4] = biological target: T1, Cholesteryl ester transfer protein; assay: Compound was evaluated for inhibitory activity against cholesteryl ester transfer protein; Inactive
[5] = biological target: T1, Cholesteryl ester transfer protein; assay: Compound was evaluated for inhibitory activity against cholesteryl ester transfer protein-SPA assay; Inactive

`CCCCC(C)C1CC(=O)N[C@@H](Cc2ccccc2)C(=O)N[C@@H](C)C(=O)N[C@@H](CC(C)C)C(=O)O1` (stereo not given in full) showed an IC50 [1] of 40 µM, an IC50 [2] of 0.3 µM and an IC50 [3] of 50 µM.
In the case of `CCCCC(C)/C=C/C(=O)N[C@@H](Cc1ccccc1)C(=O)N[C@@H](C)C(=O)N[C@@H](CC(C)C)C(=O)O` (stereo not given in full), the IC50 [4] is reported as “Not Active”.
With `CCCCC(C)C(O)CC(=O)N[C@@H](Cc1ccccc1)C(=O)N[C@@H](C)C(=O)N[C@@H](CC(C)C)C(=O)O` (stereo not given in full) the IC50 [5] was “Not Active”.
